From patent US9580604B2, “Pentafluorosulfanyl phthalocyanine derivatives and intermediates thereof” (UBE INDUSTRIES, LTD., priority 2012, dated 2017)

Legend:
[1] = UV/Vis spectra in methylene chloride; format: physicochemical; conditions: for λ/nm, absorption peak, 1st peak / λ/nm, absorption peak, 3rd peak / λ/nm, absorption peak, 4th peak / λ/nm, absorption peak, 5th peak / shift of the peak in the Q band / λ/nm, absorption peak, 2nd peak: methylene chloride; for shift of the peak in the Q band / coagulation inhibitory effect / suppression of coagulation: in words; for coagulation inhibitory effect / suppression of coagulation: in solution, judged from UV/Vis spectrum
Excerpt: FIGS. 1 to 4 show the UV/Vis spectra of the inventive phthalocyanine derivatives obtained above in Examples 8 to 11 in methylene chloride.

[2] = fluorescence spectra in methylene chloride; format: physicochemical; conditions: for fluorescence quantum yield, tendency in words: methylene chloride
Excerpt: FIGS. 6 to 9 show the fluorescence spectra of the inventive phthalocyanine derivatives obtained above in Examples 8 to 11 in methylene chloride.

[3] = solubility in an organic solvent (purification by column chromatography); conditions: result in words
[4] = 1.0 × 10^−4 M + Py, broken line
[5] = 1.0 × 10^−4 M, solid line (no pyridine)
[6] = CH2C12, solid line (no pyridine)
[7] = CH2C12—Py, broken line (in the presence of pyridine)

Substance | λ/nm, absorption peak, 1st peak [1, 4] [nm] | λ/nm, absorption peak, 3rd peak [1, 4] [nm] | λ/nm, absorption peak, 4th peak [1, 4] [nm] | λ/nm, absorption peak, 5th peak [1, 4] [nm] | λ/nm, absorption peak, 1st peak [1, 5] [nm] | λ/nm, absorption peak, 3rd peak [1, 5] [nm] | λ/nm, absorption peak, 4th peak [1, 5] [nm] | λ/nm, absorption peak, 5th peak [1, 5] [nm] | shift of the peak in the Q band [1] | Φf fluorescence quantum yield [2, 6] | λem (nm) [2, 6] [nm] | λem (nm) ([2]; CH2C12—Py, broken line) | Φf fluorescence quantum yield [2, 7] | fluorescence quantum yield, tendency in words [2] | coagulation inhibitory effect / suppression of coagulation [1] | λ/nm, absorption peak, 2nd peak [1, 4] [nm] | λ/nm, absorption peak, 2nd peak [1, 5] [nm] | solubility in an organic solvent [3]
α-tetrakis(thiophenoxy)-β-tetrakis(pentafluorosulfanyl)zinc phthalocyanine [Example 11] | 334 | 406 | 641 | 713 | 333 | 407 | 641 | 712 | significant redshift | 0.24 | 721 | 723 | 0.34 | decrease in fluorescence quantum yield | – | – | – | –
α-tetrakis(trifluoromethyl)-β-tetrakis(pentafluorosulfanyl)zinc phthalocyanine [Example 9] | 332 | 597 | 628 | 659 | 330 | 598 | 629 | 662 | – | 0.52 | 669 | 667 | 0.84 | – | superior in solubility and suppression of coagulation to the phthalocyanine obtained in Example 8 | 380 | 380 | –
α-tetrakis(phenoxy)-β-tetrakis(pentafluorosulfanyl)zinc phthalocyanine [Example 10] | 328 | 624 | 694 | – | 326 | 624 | 694 | 733 | significant redshift | 0.26 | 738 | 704 | 0.34 | decrease in fluorescence quantum yield | – | 384 | 384 | –
trifluoromethyl phthalocyanine [CF3Pc, reference compound] | 334 | 604 | 628 | 669 | 334 | – | 626 | 668 | – | 0.58 | 675 | 674 | 0.76 | – | – | 371 | – | too poorly soluble in an organic solvent to be purified by column chromatography
tetrakis(pentafluorosulfanyl)zinc phthalocyanine [Example 8] | 333 | 607 | 639 | 671 | 334 | 607 | 637 | 672 | – | 0.55 | 676 | 676 | 0.74 | – | superior coagulation inhibitory effect | 363 | 365 | –
